The source of these data is paper PMC2830944, “Purification and functional characterization of protoplasts and intact vacuoles from grape cells” (BMC Research Notes, 2010).

The Km is the concentration of substrate that gives half-maximal velocity.

Test [1] relates to T1, V-ATPase (vacuolar ATPase, V-H+-ATPase).
T1 construct: gene VHA-A; native multisubunit complex in intact vacuoles isolated from protoplasts of cultured grape berry cells
The test is described as follows: ACMA fluorescence quenching, initial velocity of proton pumping in intact vacuoles. The test is classed as biochemical, Vitis vinifera. Particulars: 100 mM KCl, 2 mM MgCl2, 0.1% BSA, 10 mM MOPS-Tris pH 7.2, 2 μM ACMA; 0.05 to 1.5 mM ATP.

In test [2] the test system is V-PPase (vacuolar inorganic pyrophosphatase, V-H+-PPase). The note with it: 100 mM KCl, 2 mM MgCl2, 0.1% BSA, 10 mM MOPS-Tris pH 7.2, 2 μM ACMA; 0.1 to 150 μM PPi.

In the case of `Nc1ncnc2c1ncn2[C@@H]1O[C@H](COP(=O)(O)OP(=O)(O)OP(=O)(O)O)[C@@H](O)[C@H]1O` [ATP], the Km in test [1] worked out at 340 µM. On to `O=P(O)(O)OP(=O)(O)O` [PPi], for which the Km in test [2] was 2 µM.
